T/C and left shift value data for 39 compounds are collected here from patent US20160368895A1, “PULMONARY HYPERTENSION TREATING AGENT” (THE UNIVERSITY OF TOKYO, priority 2013, published 2016).

Experiment [1] has as its target T1, human PGI2 receptors (hIP) (Homo sapiens, UniProt P43119).
T1 construct: expressed in transfected cells; host or cells: CHO-K1
Description: Method B: positive allosteric modulator activity, cAMP in CHO/hIP cells with 1 nM epoprostenol. Type of experiment: cell-based. The settings on record: cAMP relative to 1 nM epoprostenol alone. As for the experimental part: The positive allosteric modulator activity of a test compound was measured as a change in the amount of intracellular cyclic AMP (cAMP) in the presence of 1 nM of the IP agonist epoprostenol (manufactured by GlaxoSmithKline), using CHO-K1 cells (CHO/hIP cells) in which human PGI2 receptors (hIP) are stably expressed.
An amount of 5 μL of a mixture (diluted in F-12 culture medium (manufactured by GIBCO) including 0.1% BSA) of epoprostenol dissolved in DMSO and a test compound dissolved in DMSO was dispensed in advance into a 384-well black microplate, and 5 μL of CHO/hIP cells suspended at a concentration of 1.4×10^6 cells/mL in F-12 culture medium including 0.1% BSA were added to the microplate. After 40 minutes of incubation at room temperature, the amount of cAMP was measured using a cAMP assay kit (cAMP HiRange, manufactured by Cisbio Bioassays). Specifically, 5 μL of a cAMP-d2 solution (including a cell lysate) from the kit were added and the reaction was stopped, then 5 μL of a fluorescence-labeled cAMP antibody solution from the kit were added and incubation was performed for 1 hour at room temperature, after which fluorescence was measured using a PHERAstar plate reader (manufactured by BMG) in HTRF (registered trademark) mode. The amount of cAMP in each well was calculated from a cAMP calibration curve obtained using a standard sample, and the activity of each test compound is noted below as a ratio T/C (%) based on the amount of cAMP for 1 nM of epoprostenol alone.

Experiment [2] deals with T1, human PGI2 receptors (hIP). Kind of experiment: Method C: effect on epoprostenol-cAMP production curve in CHO/hIP cells (left shift value). It counts as cell-based. As for the experimental part: The effect of a test compound on the cAMP production curve with respect to the IP agonist epoprostenol (manufactured by GlaxoSmithKline) was investigated using CHO-K1 cells (CHO/hIP cells) in which human PGI2 receptors (hIP) are stably expressed.
An amount of 5 μL of a mixture (diluted in F-12 culture medium (manufactured by GIBCO) including 0.1% BSA) of epoprostenol dissolved in DMSO and a test compound dissolved in DMSO was dispensed in advance into a 384-well black microplate, and 5 μL of CHO/hIP cells suspended at a concentration of 1.4×10^6 cells/mL in F-12 culture medium including 0.1% BSA were added to the microplate. After 40 minutes of incubation at room temperature, the amount of cAMP was measured using a cAMP assay kit (cAMP HiRange, manufactured by Cisbio Bioassays). Specifically, 5 μL of a cAMP-d2 solution (including a cell lysate) from the kit were added and the reaction was stopped, then 5 μL of a fluorescence-labeled cAMP antibody solution from the kit were added and incubation was performed for 1 hour at room temperature, after which fluorescence was measured using a PHERAstar plate reader (manufactured by BMG) in HTRF (registered trademark) mode. The amount of cAMP in each well was calculated from a cAMP calibration curve obtained using a standard sample, and an epoprostenol-cAMP production curve for the presence of various concentrations of the test compound was created.

The mark [3] stands for this setting: Table 4, concentration of test compound that halves the EC50 of epoprostenol.
Setting [4] is: Table 5, concentration of test compound that halves the EC50 of epoprostenol.

T1 sequence (P43119 whole entry): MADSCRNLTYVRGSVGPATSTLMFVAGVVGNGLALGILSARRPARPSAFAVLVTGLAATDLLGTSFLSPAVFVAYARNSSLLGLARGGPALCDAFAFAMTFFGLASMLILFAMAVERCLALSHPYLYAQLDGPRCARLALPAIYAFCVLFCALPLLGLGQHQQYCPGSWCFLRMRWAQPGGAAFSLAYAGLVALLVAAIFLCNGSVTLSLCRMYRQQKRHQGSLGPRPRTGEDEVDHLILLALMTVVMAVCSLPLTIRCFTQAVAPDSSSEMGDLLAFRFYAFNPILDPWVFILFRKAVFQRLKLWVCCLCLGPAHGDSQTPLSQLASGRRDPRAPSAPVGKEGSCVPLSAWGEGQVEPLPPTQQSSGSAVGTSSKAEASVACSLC

Take `CC(C)(C)n1nnnc1C(c1cc2ccccc2[nH]1)N1CCc2ccccc2C1` (stereo not drawn) [Example 40]: the T/C (usually the ratio of treated to control) in experiment [1] (test concentration 10 uM) was 89.3%.
As for `CC(C)(C)n1nnnc1C1c2ccc(F)cc2SC2Cc3ccccc3CN21` (stereo not drawn) [Example 7], the left shift value in experiment [2] (setting [3]) amounted to 24.1 µM. This compound returned a T/C in experiment [1] (test concentration 10 uM) of 127.6%.
For the compound `COc1ccccc1C(C)(c1nnnn1C(C)(C)C)N1CCc2ccccc2C1` (stereo not drawn) [Example 48], in experiment [1] (test concentration 10 uM), the T/C worked out at 72.3%.
For the compound `COc1cc2ccccc2cc1C(c1nnnn1C(C)(C)C)N1CCc2ccccc2C1` (stereo not drawn) [Example 23], in experiment [2] (setting [3]), the left shift value worked out at 119.6 µM. For the same compound, the T/C in experiment [1] (test concentration 10 uM) is 106.4%.
On to `COc1ccc(C(c2nnnn2C(C)(C)C)N2CCc3sccc3C2)cc1` (stereo not drawn) [Example 63, 5-((1-(tert-butyl)-1H-tetrazol-5-yl)(4-methoxyphenyl)methyl)-4,5,6,7-tetrahydrothieno[3,2-c]pyridine], for which the left shift value in experiment [2] (setting [4]) is 34.9 µM.
In the case of `COc1ccccc1C(c1nnnn1C(C)(C)C)N1CCC2CCCCC2C1` (stereo not drawn) [Example 82, 2-((1-(tert-butyl)-1H-tetrazol-5-yl)(2-methoxyphenyl)methyl)deca-hydroisoquinoline], in experiment [2] (setting [4]), the left shift value was determined as 6.2 µM.
For `COc1ccccc1C(c1nnnn1C1(C)CCCCC1)N1CCc2ccccc2C1` (stereo not drawn) [Example 21], the left shift value in experiment [2] (setting [3]) stood at 2.0 µM. In experiment [1] (test concentration 10 uM), this compound returned a T/C of 229.7%.
Taken in the same sequence, the figures for `CC(C)(C)n1nnnc1C(c1ccccc1[N+](=O)[O-])N1CCc2ccc(F)cc2C1` (stereo not drawn) [Example 30] were 269.8 µM and 100.4%.
With `CC(C)(C)n1nnnc1C(c1ccccc1Br)N1CCc2sccc2C1` (stereo not drawn) [Example 65, 5-((2-bromophenyl)(1-(tert-butyl)-1H-tetrazol-5-yl)methyl)-4,5,6,7-tetrahydrothieno[3,2-c]pyridine], the left shift value in experiment [2] (setting [4]) worked out at 66.2 µM.
For the compound `COc1cccc(C(c2nnnn2C(C)(C)C)N2CCc3ccccc3C2)c1` (stereo not drawn) [Example 15], the left shift value in experiment [2] (setting [3]) was determined as 32.4 µM. Moreover, in experiment [1] (test concentration 10 uM), the T/C worked out at 122.4%.
Consider `Cc1ccccc1C(c1nnnn1C(C)(C)C)N1CCc2ccccc2C1` (stereo not drawn) [Example 55], for which the left shift value in experiment [2] (setting [3]) was determined as 35 µM.
Consider `COc1cc(F)ccc1C(c1nnnn1C(C)(C)C)N1CCc2ccccc2C1` (stereo not drawn) [Example 38], for which the left shift value in experiment [2] (setting [3]) was 15.1 µM. Further, the T/C in experiment [1] (test concentration 10 uM) came out at 147.0%.
For `CC(C)(C)n1nnnc1C(c1ccoc1)N1CCc2ccccc2C1` (stereo not drawn) [Example 34], in that order: 11.7 µM and 145.9%.
On to `CC(C)(C)n1nnnc1C(c1ccccc1N=O)N1CCc2ccc(Cl)cc2C1` (stereo not drawn) [Example 18], for which the T/C in experiment [1] (test concentration 10 uM) is on record as 94.1%.
As to `CC(C)(C)n1nnnc1C(c1ccc(Br)cc1)N1CCc2ccccc2C1` (stereo not drawn) [Example 4], in experiment [2] (setting [3]), the left shift value came to 35.7 µM. The T/C in experiment [1] (test concentration 5 uM) stood at 100.1%.
With `CSc1ccccc1C(c1nnnn1C(C)(C)C)N1CCc2ccccc2C1` (stereo not drawn) [Example 13], the left shift value in experiment [2] (setting [3]) is 3.1 µM. In experiment [1] (test concentration 10 uM), this compound displayed a T/C of 218.3%.
As for `CC(C)(C)n1nnnc1C(c1ccccc1)N1CCc2sccc2C1` (stereo not drawn) [Example 59, 5-((1-(tert-butyl)-1H-tetrazol-5-yl)(phenyl)methyl)-4,5,6,7-tetrahydrothieno[3,2-c]pyridine], the left shift value in experiment [2] (setting [4]) stood at 16.1 µM.
The same measure, in the same setting: then `CSc1ccccc1C(c1nnnn1C(C)(C)C)N1CCc2sccc2C1` (stereo not drawn) [Example 70, 5-((1-(tert-butyl)-1H-tetrazol-5-yl)(2-(methylthio)phenyl)methyl)-4,5,6,7-tetrahydrothieno[3,2-c]pyridine], with 14.8 µM; and `CC(C)(C)n1nnnc1C(c1cccs1)N1CCc2sccc2C1` (stereo not drawn) [Example 62, 5-((1-(tert-butyl)-1H-tetrazol-5-yl)(thiophen-2-yl)methyl)-4,5,6,7-tetrahydrothieno[3,2-c]pyridine], with 12.2 µM; and `CC1(n2nnnc2C(c2ccccc2O)N2CCc3ccccc3C2)CCCCC1` (stereo not drawn) [Example 71, 2-((3,4-dihydroisoquinolin-2(1H)-yl)-(1-(1-methylcyclohexyl)-1H-tetrazol-5-yl)methyl)phenol], with 2.3 µM.
The same measure, in the same setting: under `COc1ccccc1C(c1nnnn1C(C)(C)C)N1CCc2sccc2C1` (stereo not drawn) [Example 60, 5-((1-(tert-butyl)-1H-tetrazol-5-yl)(2-methoxyphenyl)methyl)-4,5,6,7-tetrahydrothieno[3,2-c]pyridine] stands 10.5 µM.
For `CCCOc1ccccc1C(c1nnnn1C(C)(C)C)N1CCc2ccccc2C1` (stereo not drawn) [Example 52], in experiment [2] (setting [3]), the left shift value stood at 4.3 µM.
In the case of `CC(C)(C)n1nnnc1C(c1ccsc1)N1CCc2sccc2C1` (stereo not drawn) [Example 68, 5-((1-(tert-butyl)-1H-tetrazol-5-yl)(thiophen-3-yl)methyl)-4,5,6,7-tetrahydrothieno[3,2-c]pyridine], in experiment [2] (setting [4]), the left shift value was found to be 15.5 µM.
Regarding `CC1(n2nnnc2C(c2ccccc2)N2CCc3ccccc3C2)CCCCC1` (stereo not drawn) [Example 41], the T/C in experiment [1] (test concentration 5 uM) is reported as 116.3%.
With `CC1(n2nnnc2C(c2cccs2)N2CCc3sccc3C2)CCCCC1` (stereo not drawn) [Example 74, 5-((1-(1-methylcyclohexyl)-1H-tetrazol-5-yl)(thiophen-2-yl)methyl)-4,5,6,7-tetrahydrothieno[3,2-c]pyridine], in experiment [2] (setting [4]), the left shift value was 8.6 µM.
In experiment [1] (test concentration 10 uM), `CC(C)(C)n1nnnc1C(c1cc2ccccc2o1)N1CCc2ccccc2C1` (stereo not drawn) [Example 50] returned a T/C of 105.0%.
Consider `CC(C)(C)n1nnnc1C(c1nccs1)N1CCc2ccccc2C1` (stereo not drawn) [Example 73, 2-((1-(tert-butyl)-1H-tetrazol-5-yl)(3,4-dihydroisoquinolin-2(1H)-yl)methyl)thiazole], for which, in experiment [2] (setting [4]), the left shift value amounted to 44.6 µM.
On the same count and under the same terms, under `COc1c(F)cccc1C(c1nnnn1C(C)(C)C)N1CCc2ccccc2C1` (stereo not drawn) [Example 80, 2-((1-(tert-butyl)-1H-tetrazol-5-yl)(3-fluoro-2-methoxyphenyl)methyl)-1,2,3,4-tetrahydroisoquinoline] stands 26.5 µM; under `COc1ccsc1C(c1nnnn1C1(C)CCCCC1)N1CCc2sccc2C1` (stereo not drawn) [Example 75, 5-((3-methoxythiophen-2-yl)(1-(1-methylcyclohexyl)-1H-tetrazol-5-yl)methyl)-4,5,6,7-tetrahydrothieno[3,2-c]pyridine], 2.1 µM.
In experiment [1] (test concentration 5 uM), `CC(C)(C)n1nnnc1C(c1ccccc1Br)N1CCc2ccc(Cl)cc2C1` (stereo not drawn) [Example 17] gave a T/C of 87%.
Regarding `Cc1ccccc1C(c1nnnn1C(C)(C)C)N1CCc2ccccc2C1` (stereo not drawn) [Example 11], in experiment [1] (test concentration 10 uM), the T/C amounted to 95%.
Take `CC(C)(C)n1nnnc1C(c1ccc[nH]1)N1CCc2sccc2C1` (stereo not drawn) [Example 66, 5-((1-(tert-butyl)-1H-tetrazol-5-yl)(1H-pyrrol-2-yl)methyl)-4,5,6,7-tetrahydrothieno[3,2-c]pyridine]: in experiment [2] (setting [4]), the left shift value was found to be 84.5 µM.
Regarding `CC(C)(C)n1nnnc1C(c1ccccc1Cl)N1CCc2ccccc2C1` (stereo not drawn) [Example 53], the left shift value in experiment [2] (setting [3]) turned out to be 7.2 µM.
On to `COc1ccccc1C(c1nnnn1C1(C)CCCCC1)N1CCc2sccc2C1` (stereo not drawn) [Example 76, 5-((2-methoxyphenyl)(1-(1-methylcyclohexyl)-1H-tetrazol-5-yl)methyl)-4,5,6,7-tetrahydrothieno[3,2-c]pyridine], for which the left shift value in experiment [2] (setting [4]) was determined as 7.2 µM.
In the case of `CC(C)(C)n1nnnc1C(c1ccccc1F)N1CCc2sccc2C1` (stereo not drawn) [Example 69, 5-((1-(tert-butyl)-1H-tetrazol-5-yl)(2-fluorophenyl)methyl)-4,5,6,7-tetrahydrothieno[3,2-c]pyridine], the left shift value in experiment [2] (setting [4]) amounted to 20.6 µM.
On to `Cc1ccccc1C(c1nnnn1C(C)(C)C)N1CCc2ccc(Cl)cc2C1` (stereo not drawn) [Example 19], for which, in experiment [1] (test concentration 5 uM), the T/C came to 90%.
`CC(C)(C)n1nnnc1C(c1cc2ccccc2s1)N1CCc2ccccc2C1` (stereo not drawn) [Example 49] gave a T/C in experiment [1] (test concentration 10 uM) of 104.7%.
Same read-out and setting: under `CC(C)(C)n1nncc1C(c1ccc(C(F)(F)F)cc1)N1CCc2ccccc2C1` (stereo not drawn) [Example 6] stands 93.7%.
With `CC1(n2nnnc2C(c2cccc(F)c2O)N2CCc3ccccc3C2)CCCCC1` (stereo not drawn) [Example 83], the left shift value in experiment [2] (setting [4]) is 25.0 µM.
